Results published in US20090196833A1, “COMPOSITIONS COMPRISING TOPICAL DPD INHIBITORS AND METHODS OF USING SAME IN THE TREATMENT OF HAND-FOOT SYNDROME” (ADHEREX TECHNOLOGIES INC., priority 2008, published 2009).
Where two headings read alike, the source gives them in different places. Each block holds one compound with its values, some of them ahead of it.

What was measured:
[1] = 5-FU pharmacokinetics in pigs with topical eniluracil (Example 6); type: in vivo; conditions: pig, plasma, 6 mg/kg, 5-FU 6 mg/kg bolus, read-out: 5-FU Half-Life, Mean (SD)
Method: (§1) This study was carried out to determine the plasma pharmacokinetics of eniluracil (EU) after topical administration and to evaluate the effect of topical eniluracil application on 5-FU pharmacokinetics, peripheral blood mononuclear cell (PBMC) dihydropyrimidine dehydrogenase (DPD) function, and levels of DPD activity in the skin in vivo. Eniluracil (0.005% and 0.01% w/w) formulated using Aquaphor® was applied topically (617 mg to a designated area) for 5 minutes every other day for 16 days starting on Day-2. 5-Fluorouracil was administered as a 6 mg/kg bolus injection on Day-3, Day 0 and Day 14. Samples were collected at predetermined time intervals to evaluate 5-fluorouracil pharmacokinetics, eniluracil pharmacokinetics, skin DPD activity and systemic DPD activity.
(§2) A baseline 5-FU pharmacokinetic study was conducted on Day-3 by collecting serial blood samples after 5-FU administration. […] The total ointment applied was […]. The area of application in the pig ([…]=0.0040 m^2) was selected based on feasibility and scale to the proposed human use using the following figures: the surface area of one palm and one sole combined in a human is 2% of the total body surface area, the average total body surface area in a pig is 0.40 m^2. Thus, in terms of total eniluracil in mg/m^2 applied to pigs was 0.154 for 0.01% and 0.077 for 0.005%. The duration of application was 5 minutes, which was determined based data obtained from a pilot study. In this study, higher doses of topical eniluracil (5 gms of 0.01%, 0.05% and 0.01% w/w) and placebo were applied on the skin and skin biopsies were collected after predefined time intervals. These samples were then analyzed for DPD activity.
(§3) Ointment exposure time was 5 minutes every other day for 16 days. Eniluracil treated animals also received 617 mg of placebo at a site different from the treatment site. Eniluracil pharmacokinetics were analyzed from the serial blood samples drawn on first day of the 5-FU and eniluracil treatment (Day 0) and on Day 14. In addition, eniluracil concentrations were evaluated in all samples obtained for 5-FU pharmacokinetics, as shown above. 5-FU pharmacokinetics were evaluated from 11 serial blood samples drawn after the IV bolus administration of 5-FU on Day-3, Day 0 and Day 14. On 5-FU treatment days, eniluracil administration was conducted first (5 min) followed by 5-FU at the 6 minute time point. Blood samples were collected for plasma EU analyses prior to topical administration and at 2 min and 5 min (end of topical exposure). Blood samples were collected for both EU and 5-FU analyses immediately prior to 5-FU administration and at the following times from the IV bolus: 2, 5, 10, 15, 30, 45, 60, 90 120, and 180 min. Determinations of eniluracil and 5-fluorouracil plasma pharmacokinetics were made. The effect on the local DPD activity and the effect of topical eniluracil on systemic DPD activity were assessed by collecting skin biopsies from both the treatment site and the placebo site, and peripheral blood mononuclear cells (PBMCs) on day-2 and on day 12. DPD activity in PBMCs was also measured on Day 17 and Day 19, to investigate the time to recovery if there was any systemic inhibition of DPD.
In terms of statistical considerations, the study was designed with 4 pigs to a treatment group in order to have 80% power for observation of at least a 40% difference in 5-FU systemic exposure between measurements conducted on day-3 (no eniluracil) to day 14 (on eniluracil every other day since day-2) at each of the two dosing levels (4 animals per dose level). These evaluations were conducted using matched, paired T Tests and Wilcoxon tests. In addition, day 14 data were compared between the treatment vs. control groups using the Kiruskal-Wallis test. […]

[2] = tested on: EpiDerm™ skin model (normal, human-derived epidermal keratinocytes (NHEK)); experiment: EpiDerm skin model MTT conversion assay (ET50, dermal irritation); type: cell-based; conditions: for ET50: exposure times 8, 20, 24 hours
Text: The EpiDerm™ skin model system (MatTek) was used to assess the potential dermal irritation of eniluracil alone or its formulation. This system consists of normal, human-derived epidermal keratinocytes (NHEK) which have been cultured to form a multilayered, highly differentiated model of the human epidermis. […] The EpiDerm™ system is mitotically and metabolically active. Markers of mature epidermis-specific differentiation such as pro-filaggrin, the K1/K10 cytokeratin pair, involucrin, and type I epidermal transglutaminase have been localized in the model. […] Eniluracil was prepared and administered to the test system at the three final concentrations of 1000 μM, 500 μM, and 100 μM, and tested at three exposure times of 8, 20, and 24 hours. The DMSO solvent control was tested at exposure times of 8 and 24 hours. The negative control was tested at exposure times of 4 and 24 hours, and the positive control was tested at exposure times of 4 and 8 hours. […] Hydrochloric acid in an amount equivalent to the sodium hydroxide was added to neutralize the ointment. The exposure time control was also exposed in duplicate for 4 and 24 hours. Table 2 below summarizes the ET50 results of the EpiDerm™ assay for the test articles and the positive control, using the negative control results to determine the relative viability.

[3] = pH of test article in the EpiDerm studies; type: physicochemical
[4] = Plasma eniluracil after topical administration in pigs (Example 6); type: in vivo
Method: as §1, §2
as §3, with “On 5-FU treatment days, eniluracil administration was conducted first (5 min) followed by 5-FU at the 6 minute time point. Blood samples were collected for plasma EU analyses prior to topical administration and at 2 min and 5 min (end of topical exposure). Blood samples were collected for both EU and 5-FU analyses immediately prior to 5-FU administration and at the following times from the IV bolus: 2, 5, 10, 15, 30, 45, 60, 90 120, and 180 min. Determinations of eniluracil and 5-fluorouracil plasma pharmacokinetics were made.” left out

[5] = target: T1, dihydropyrimidine dehydrogenase (DPD) (Sus scrofa, UniProt Q28943); experiment: Skin DPD activity in pigs with topical eniluracil (Example 6); type: in vivo; conditions: short term topical application at 0.005% or 0.01% w/w
T1 construct: the supernatant (cytosolic fraction) was collected for use as the enzyme source; from tissue; host or cells: pig skin biopsies after topical dosing in vivo
T1 sequence (Q28943 4-1025): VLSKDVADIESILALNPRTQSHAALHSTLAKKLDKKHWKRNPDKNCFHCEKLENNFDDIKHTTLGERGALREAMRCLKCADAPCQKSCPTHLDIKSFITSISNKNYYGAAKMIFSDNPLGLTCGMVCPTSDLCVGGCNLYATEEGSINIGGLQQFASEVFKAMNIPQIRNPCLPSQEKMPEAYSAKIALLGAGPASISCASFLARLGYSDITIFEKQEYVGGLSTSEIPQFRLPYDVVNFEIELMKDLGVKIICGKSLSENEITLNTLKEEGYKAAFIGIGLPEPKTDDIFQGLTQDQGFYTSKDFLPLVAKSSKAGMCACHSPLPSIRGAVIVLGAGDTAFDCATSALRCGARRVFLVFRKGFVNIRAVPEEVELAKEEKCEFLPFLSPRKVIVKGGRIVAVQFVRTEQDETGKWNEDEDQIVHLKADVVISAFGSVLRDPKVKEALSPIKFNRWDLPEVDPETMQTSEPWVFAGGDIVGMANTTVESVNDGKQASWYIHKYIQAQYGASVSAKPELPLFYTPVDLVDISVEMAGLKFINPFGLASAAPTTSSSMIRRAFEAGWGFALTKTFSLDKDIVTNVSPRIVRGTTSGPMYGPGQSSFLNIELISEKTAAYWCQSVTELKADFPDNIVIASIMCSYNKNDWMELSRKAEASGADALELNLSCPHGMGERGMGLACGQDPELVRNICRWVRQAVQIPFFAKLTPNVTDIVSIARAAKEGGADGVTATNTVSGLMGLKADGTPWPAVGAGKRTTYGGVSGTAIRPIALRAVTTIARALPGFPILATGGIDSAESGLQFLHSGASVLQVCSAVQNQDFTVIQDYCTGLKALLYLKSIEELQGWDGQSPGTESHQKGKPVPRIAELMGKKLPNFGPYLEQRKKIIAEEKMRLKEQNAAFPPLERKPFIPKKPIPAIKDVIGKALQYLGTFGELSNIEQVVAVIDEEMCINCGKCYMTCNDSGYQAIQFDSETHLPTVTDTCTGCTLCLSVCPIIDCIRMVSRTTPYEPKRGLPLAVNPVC
Method: as §1, with “Samples were collected at predetermined time intervals to evaluate 5-fluorouracil pharmacokinetics, eniluracil pharmacokinetics, skin DPD activity and systemic DPD activity.” left out
A baseline 5-FU pharmacokinetic study was conducted on Day-3 by collecting serial blood samples after 5-FU administration. […] The duration of application was 5 minutes, which was determined based data obtained from a pilot study. […] These samples were then analyzed for DPD activity.
Ointment exposure time was 5 minutes every other day for 16 days. […] Eniluracil pharmacokinetics were analyzed from the serial blood samples drawn on first day of the 5-FU and eniluracil treatment (Day 0) and on Day 14. In addition, eniluracil concentrations were evaluated in all samples obtained for 5-FU pharmacokinetics, as shown above. 5-FU pharmacokinetics were evaluated from 11 serial blood samples drawn after the IV bolus administration of 5-FU on Day-3, Day 0 and Day 14. […]

[6] = capecitabine at labeled dose; cited from earlier work
[7] = tested on: Thymidine phosphorylase (TP); experiment: Thymidine phosphorylase (TP) enzyme activity in skin sample supernatant; conditions: concentration of 100 uM; 200 μM capecitabine substrate
Method: Skin samples were suspended in 600 μl of homogenization buffer containing 20 mM potassium phosphate (pH 8.0), 1.5 mM dithiothreitol (DTT), and 5 ul/ml protease inhibitor (Sigma). Samples were homogenized and centrifuged at 36,000 rpm for one hour at 4° C. The supernatants were collected and protein concentration was measured using the Bradford assay (Biorad). Thymidine phosporylase (TP) enzyme activity was determined in an assay mixture containing 20 mM potassium phosphate (pH 8.0), 1 mM DTT, 1 mM EDTA, 2 μM 6-^3H-Capecitabine (Moravek Biochemicals, Brea, Calif.), 200 μM unlabeled Capecitabine, varying concentrations of the inhibitor (100 μM, 10 μM, or 1 μM), and 80 μl of protein (6.0 mg/ml) in a final volume of 160 μl. Reactions were incubated at 37° C. for 30 minutes and then terminated by boiling for four minutes. To facilitate protein precipitation, the reactions were incubated at −80° C. for at least 20 minutes, thawed, and then centrifuged for 10 minutes at 14000 rpm at 4° C. The resulting supernatants were filtered through a 0.2 μm Acrodisc filter (VWR International, West Chester, Pa.) and samples were injected in duplicate (60 μl each) onto a HPLC (Hewlett-Packard 1050, Houston, Tex.) equipped with an automatic injector and on-line radioisotope flow detector (Radiomatic FLO-ONE Beta, Packard Instrument, Meriden, Conn.). […]

- half-life ([1]; iv, Both Doses of eniluracil ointment, Day 0): 10.1 min
- half-life ([1]; iv, Both Doses of eniluracil ointment, Day 14): 9.77 min
- half-life ([1]; iv, Controls (no ointment), Day 0): 7.56 min
- half-life ([1]; iv, Controls (no ointment), Day 14): 9.74 min
- half-life ([1]; iv, Controls (no ointment), Day −3): 5.51 min
- half-life ([1]; iv, eniluracil ointment Dose 0.005%, Day 0): 6.98 min
- half-life ([1]; iv, eniluracil ointment Dose 0.005%, Day 14): 6.7 min
- half-life ([1]; iv, eniluracil ointment Dose 0.01%, Day 0): 13.2 min
- half-life ([1]; iv, eniluracil ointment Dose 0.01%, Day 14): 12.8 min
- half-life ([1]; topical or ocular, Both Doses of eniluracil ointment, Day −3 (no topical eniluracil)): 5.11 min
- half-life ([1]; topical or ocular, eniluracil ointment Dose 0.005% group, Day −3 (no topical eniluracil)): 5.44 min
- half-life ([1]; topical or ocular, eniluracil ointment Dose 0.01% group, Day −3 (no topical eniluracil)): 4.78 min
Structure (SMILES): O=c1[nH]cc(F)c(=O)[nH]1 [5-FU, 5-Fluorouracil]

- pH ([3]; eniluracil 100 uM): 5
- pH ([3]; eniluracil 500 uM): 5
- pH ([3]; eniluracil 1000 uM): 5
- plasma EU concentration ([4]; 221 of the 224 samples, limit of quantitation, topical 0.005% or 0.01% w/w, 5 minutes every other day): ≤ 11 ng/mL
- plasma EU concentration ([4]; pig 5303, EU dose 0.005%, day 14, 6 min): 12.81 ng/mL
- plasma EU concentration ([4]; pig 5303, EU dose 0.005%, day 14, 11 min): 11.52 ng/mL
- plasma EU concentration ([4]; pig 5303, EU dose 0.005%, day 14, 15 min): 11.07 ng/mL
- effect on skin DPD activity [5]: temporary and recoverable inhibition
Structure (SMILES): C#Cc1c[nH]c(=O)[nH]c1=O [Eniluracil, eniluracil]
- tolerability in EpiDerm skin model ([2]; 1000, 500 and 100 μM, topical exposures of up to 24 hours): well-tolerated
- ET50 ([2]; eniluracil 100 uM): >24 h
- ET50 ([2]; eniluracil 500 uM): >24 h
- ET50 ([2]; eniluracil 1000 uM): >24 h

Structure (SMILES): CCCCCOC(=O)Nc1nc(=O)n([C@@H]2O[C@H](C)[C@@H](O)[C@H]2O)cc1F [capecitabine, 5′-deoxy-5-fluoro-N-[(pentyloxy)carbonyl]-cytidine]
- reported incidence of HFS, all grades [6]: approximately 60%
- reported incidence of HFS, high grade [6]: ~17%

Structure (SMILES): Cc1cn([C@H]2C[C@H](O)[C@@H](CO)O2)c(=O)[nH]c1=O [thymidine]
- inhibition of TP activity [7]: about 50%

Structure (SMILES): O=c1ccn([C@@H]2O[C@H](CO)[C@@H](O)[C@H]2O)c(=O)[nH]1 [uridine]
- inhibition of TP activity [7]: about 50%
